Results: patent publication US5494932A, “Sulfonic stilbene derivatives in the treatment of viral disease” (Merrell Dow Pharmaceuticals Inc., priority 1991, dated 1996)
Like-named read-outs stand apart in the source and are kept apart here.

Columns and labels:
[1] = system: HIV-1 strain RF in C8166 cells; assay: Acute HIV-1 (RF) infection of C8166 cells: syncytial and p24 antigen assays; assay type: cell-based, HIV-1 (human C8166 cells); details: Human immunodeficiency virus 1, RF strain in C8166 cells, read-out: P24 Antigen % Virus Control (values in parenthesis)
Text: (§1) When evaluated in the human T cell line JM acutely infected with the GB8 virus, DIDS, H2 DIDS and SITS (Table I) suppressed virus-induced multinucleated giant cell formation (syncytia). […] We also examined the antiviral properties of these compounds in a second host-cell/virus system, i.e., the highly CD4+ C8166 cells infected with the Haitian strain of HIV-1, RF.
(§2) The cell lines used were the semi-mature human lymphoblastoid leukemia T cell line JM, the human T-lymphoblastoid C8166 cell line, the human cutaneous T cell lymphoma line H9 and, the human T cell transformed line MT-4. Stocks of HIV-1 strains RF and GB8 (kindly provided by Dr. Graham Farrar, Center for Applied Microbiological Research, Porton Dawn, England) were prepared from chronically infected H9 cells and acutely infected JM cells, respectively. Virus stocks consisted of cell-free growth medium (RPMI 1640 plus 10% fetal calf serum) containing freshly shed virus. Virus titres were determined by a standard plaque reduction assay.
(§3) Virus stocks (strains RF or GB8) were diluted into growth medium containing various concentrations of DIDS, H2 DIDS or SITS. The required number of cells were then immediately added and the virus allowed to absorb for 2 hours at 37° C. to give a multiplicity of infection (MOI) of 0.001 infectious units/cell. The virus-infected cells were pelleted, washed three times in phosphate buffered saline (PBS), and resuspended in fresh growth medium containing the appropriate concentrations of stilbene disulfonic acids. Cells were then distributed into 24-well culture plates (Falcon) and assayed as described below for virus infection. Alternatively, cells were first infected with HIV-1 (strains RF or GB8) for 2 hours at 37° C. at the above MOI. After extensive washing, cells were replated into fresh growth medium containing various concentrations of stilbene disulfonic acids. In the above experiments, syncytia were scored between 2 and 4 days postinfection (p.i.) in triplicate using an Olympus CK2 inverted microscope. The culture fluids were recovered between 3 and 5 days p.i., clarified by low speed centrifugation (2,000 rpm) for 5 minutes and the level of HIV-1 p24 core antigen in the supernatants was determined by p24 antigen ELISA (Coulter). The concentrations of stilbene disulfonic acids giving 50% inhibition of HIV-1 growth (IC50) were determined from the dose-response curves by linear regression analysis.

HSV 2 = assay: Plaque reduction assay, HSV 2; assay type: cell-based
Method: Protocol: Plaque reduction assay. Treatment after adsorption during incubation.

[2] = system: HIV-1 strain GB8 in JM cells; assay: Acute HIV-1 (GB8) infection of JM cells: syncytial counts and p24 antigen; assay type: cell-based, HIV-1 (human T cell line JM); details: for Mean Syncytial Counts: at day 4 p.i.
Text: as §1, §2, §3
Protocol: JM cells were infected with HIV-1 to give a multiplicity of infection of 0.001. Virus adsorption was for 2 hours at room temperature. The cells were washed and distributed into wells containing different concentrations of test compounds and incubated. After 2 days the cells were observed and syncytia were counted. The cell-free supernatant fluids were harvested at 4 and 6 days post infection and assayed for levels of p24 viral core antigen and after 6 days the supernatants were also titrated to determine levels of infectivity.

Structure (SMILES): O=S(=O)(O)c1cc(N=C=S)ccc1CCc1ccc(N=C=S)cc1S(=O)(=O)O [H2 DIDS, 4,4'-diisothiocyanatodihydrostilbene-2,2'-disulfonic acid]
- activity at 50 µg/mL ([1]; 50 µg/mL): > 100%
- activity at 100 µg/mL ([1]; 100 µg/mL): 59%
- activity at 200 µg/mL ([1]; 200 µg/mL): 2.5%
- Plaque counts (HSV 2; 0.1 μg/ml, first count): 35
- Plaque counts (HSV 2; 0.1 μg/ml, second count): 35
- Plaque counts (HSV 2; 1 μg/ml, first count): 23
- Plaque counts (HSV 2; 1 μg/ml, second count): 31
- Plaque counts (HSV 2; 1 μg/ml, third count): 24
- Plaque counts (HSV 2; 10 μg/ml, first count): 26
- Plaque counts (HSV 2; 10 μg/ml, second count): 19
- Plaque counts (HSV 2; 10 μg/ml, third count): 21
- Plaque counts (HSV 2; 100 μg/ml, first count): 0
- Plaque counts (HSV 2; 100 μg/ml, second count): 0
- Plaque counts (HSV 2; 100 μg/ml, third count): 0
- activity at 0.1 µg/mL (HSV 2; read-out: Mean % VC (plaques)): 63%
- activity at 1 µg/mL (HSV 2; read-out: Mean % VC (plaques)): 46%
- activity at 10 µg/mL (HSV 2; read-out: Mean % VC (plaques)): 43%
- activity at 100 µg/mL (HSV 2; read-out: Mean % VC (plaques)): 0%
- Mean Syncytial Counts 2 Days p.i. ([2]; 3 μg/ml): 107
- Mean Syncytial Counts ([2]; 6 μM): 107
- Mean Syncytial Counts 2 Days p.i. ([2]; 6 μg/ml): 97
- Mean Syncytial Counts ([2]; 12 μM): 97
- Mean Syncytial Counts 2 Days p.i. ([2]; 12.5 μg/ml): 71
- p24 4 days p.i. ([2]; 12.5 μg/ml): 94000 pg/mL
- p24 6 days p.i. ([2]; 12.5 μg/ml): 8.51 × 10^6 pg/m.
- Mean Syncytial Counts ([2]; 25 μM): 71
- Mean Syncytial Counts 2 Days p.i. ([2]; 25 μg/ml): 7
- p24 4 days p.i. ([2]; 25 μg/ml): 32000 pg/mL
- p24 6 days p.i. ([2]; 25 μg/ml): 2.66 × 10^6 pg/m.
- Mean Syncytial Counts ([2]; 50 μM): 7
- Mean Syncytial Counts 2 Days p.i. ([2]; 50 μg/ml): 0
- p24 4 days p.i. ([2]; 50 μg/ml): 70 pg/mL
- p24 6 days p.i. ([2]; 50 μg/ml): 3.77 × 10^2 pg/m.
- Mean Syncytial Counts ([2]; 100 μM): 0
- Mean Syncytial Counts 2 Days p.i. ([2]; 100 μg/ml): 0
- p24 6 days p.i. ([2]; 100 μg/ml): 6.48 × 10^2 pg/m.
- Mean Syncytial Counts ([2]; 200 μM): 0
- activity at 50 µg/mL ([2]; Human immunodeficiency virus 1, 96 h, read-out: p24 4 days p.i., % Control): 0.01%
- activity at 12.5 µg/mL ([2]; Human immunodeficiency virus 1, 96 h, 12.5 μg/ml, read-out: p24 4 days p.i., % Control): > 100%
- activity at 25 µg/mL ([2]; Human immunodeficiency virus 1, 96 h, 25 μg/ml, read-out: p24 4 days p.i., % Control): 43%
- activity at 100 µg/mL ([2]; Human immunodeficiency virus 1, 96 h, 100 μg/ml, read-out: p24 4 days p.i., % Control): 0%
- activity at 200 µM ([2]; Human immunodeficiency virus 1, 144 h, read-out: P24 Antigen % Virus Control): 0%
- activity at 12 µg/mL ([2]; Human immunodeficiency virus 1, 144 h, 12 µg/mL, GB8 in JM cells, day 6 p.i., read-out: P24 Antigen % Virus Control): 100%
- activity at 12.5 µg/mL ([2]; Human immunodeficiency virus 1, 144 h, 12.5 μg/ml, read-out: p24 6 days p.i., % Control): > 100%
- activity at 25 µg/mL ([2]; Human immunodeficiency virus 1, 144 h, 25 µg/mL, GB8 in JM cells, day 6 p.i., read-out: P24 Antigen % Virus Control): 100%
- activity at 25 µg/mL ([2]; Human immunodeficiency virus 1, 144 h, 25 μg/ml, read-out: p24 6 days p.i., % Control): > 100%
- activity at 50 µg/mL ([2]; Human immunodeficiency virus 1, 144 h, 50 µg/mL, GB8 in JM cells, day 6 p.i., read-out: P24 Antigen % Virus Control): 43%
- activity at 50 µg/mL ([2]; Human immunodeficiency virus 1, 144 h, 50 μg/ml, read-out: p24 6 days p.i., % Control): 0.02%
- activity at 100 µg/mL ([2]; Human immunodeficiency virus 1, 144 h, 100 µg/mL, GB8 in JM cells, day 6 p.i., read-out: P24 Antigen % Virus Control): 0.01%
- activity at 100 µg/mL ([2]; Human immunodeficiency virus 1, 144 h, 100 μg/ml, read-out: p24 6 days p.i., % Control): 0.03%
